For orientation: IC50 means the concentration at which inhibition is half-maximal.

Our source for the IC50 values is patent publication US20250346602A1, “LACTAM SUBSTITUTED IMIDAZOPYRIDAZINE IL-17A MODULATORS AND USES THEREOF” (DICE ALPHA, INC., priority 2022, published 2025).

The experiment concerns the target T1, IL-17A/A (Homo sapiens, UniProt Q16552).
T1 construct: purchased Genscript Z03228
T1 sequence (Q16552 24-155): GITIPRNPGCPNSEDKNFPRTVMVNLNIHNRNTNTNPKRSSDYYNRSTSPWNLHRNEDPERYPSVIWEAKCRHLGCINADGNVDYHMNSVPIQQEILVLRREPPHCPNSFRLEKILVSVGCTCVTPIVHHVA
As to the kind of experiment: IL-17A/A HEK-Blue cell assay. It is filed as cell-based. The following applies: HEK-Blue IL-17A reporter cell line (HEK 293), IL-17A/A stimulation, 20 hours incubation, SEAP read at A630. The protocol:
The HEK-Blue IL-17A reporter cell line (Fisher #NC1408637) was used for cell-based IL-17A/A inhibition assays. Cells were grown and prepared for assays according to the manufacturer's instructions. This cell line consists of HEK 293 cells that were designed to expressed IL-17RA, IL-17RC, and the ActI adapter molecule, the combination of which, when stimulated by IL-17A/A activates a NFκB promoter and drives expression of a recombinant Secreted Alkaline Phosphatase (SEAP) gene protein. Media from the cells is then added to a development reagent (Quanti-Blue Substrate, Fisher #NC9711613), and read at A630.
Compounds were titrated in DMSO, with a top final compound concentration of 10 uM, 1 uM, or 0.3 uM, and added to the cells immediately before adding IL-17A/A (Genscript #Z03228). The cells, compound, and IL-17A/A were then incubated for 20 hours before media was removed for SEAP analysis. The resulting inhibition curve was then analyzed using Graphpad Prism 7.0, and IC50 values were determined using a 4-parameter nonlinear fit. DMSO was added to a universal final concentration of 0.1% to optimize background.
Regarding `CCn1nccc1C(=O)NC(c1cn2nc(CC3C(=O)NCC4CC43)ccc2n1)C1CCC(C)CC1` (single isomer, unassigned) [Compound 48], the IC50 was in the range of 100 to 1000 nM.

On to `CCn1nccc1C(=O)NC(c1cn2nc(CC3CC(C)CNC3=O)ccc2n1)C1CCC(C)CC1` (single isomer, unassigned) [Compound 49], for which the 50% inhibitory concentration (IC50) lay in the range of 100 to 1000 nM.

Turning to `CCn1nccc1C(=O)NC(c1cn2nc(CC3CC(C)CNC3=O)ccc2n1)C1CCC(C)CC1` (single isomer, unassigned) [Compound 50], the IC50 is over 1000 nM.

On to `CCn1nccc1C(=O)NC(c1cn2nc(CC3CC(C)CNC3=O)ccc2n1)C1CCC(C)CC1` (single isomer, unassigned) [Compound 51], for which the IC50 was 100 to 1000 nM.

For `CCn1nccc1C(=O)N[C@H](c1cn2nc(CC3C(=O)NCCC3C)ccc2n1)[C@H]1CC[C@H](C)CC1` (single isomer, unassigned) [Compound 52], the IC50 is over 1000 nM.

For the compound `CCn1nccc1C(=O)N[C@H](c1cn2nc(CC3C(=O)NCCC3C)ccc2n1)[C@H]1CC[C@H](C)CC1` (single isomer, unassigned) [Compound 53], the IC50 was in the range of 100 to 1000 nM.

Turning to `CCn1nccc1C(=O)N[C@H](c1cn2nc(CC3C(=O)NCCC3C)ccc2n1)[C@H]1CC[C@H](C)CC1` (single isomer, unassigned) [Compound 54], the IC50 was 100 to 1000 nM.

Take `CCn1nccc1C(=O)N[C@H](c1cn2nc(C(C)C3C[C@@H](C(F)(F)F)CNC3=O)ccc2n1)C(C1CC1)C1CC1` (single isomer, unassigned) [Compound 55]: the 50% inhibitory concentration (IC50) was in the range of 100 to 1000 nM.

As to `CCn1nccc1C(=O)N[C@H](c1cn2nc(C(C)C3C[C@@H](C(F)(F)F)CNC3=O)ccc2n1)C(C1CC1)C1CC1` (single isomer, unassigned) [Compound 56], the IC50 was over 1000 nM.

Turning to `CCn1nccc1C(=O)N[C@H](c1cn2nc(C(C)C3C[C@@H](C(F)(F)F)CNC3=O)ccc2n1)C(C1CC1)C1CC1` (single isomer, unassigned) [Compound 57], the IC50 is over 1000 nM.

As to `CCn1nccc1C(=O)N[C@H](c1cn2nc(C(COC)C3C[C@@H](C(F)(F)F)CNC3=O)ccc2n1)C(C1CC1)C1CC1` (single isomer, unassigned) [Compound 62], the half-inhibitory concentration (IC50) was 100 to 1000 nM.

`CCn1nccc1C(=O)N[C@H](c1cn2nc(CC3C[C@@H](C)NC3=O)ccc2n1)[C@H]1CC[C@H](C)CC1` (single isomer, unassigned) [Compound 63]: the 50% inhibitory concentration (IC50) is 100 to 1000 nM.

Regarding `CCn1nccc1C(=O)N[C@H](c1cn2nc(CC3CC4(CC4)CNC3=O)ccc2n1)[C@H]1CC[C@H](C)CC1` (single isomer, unassigned) [Compound 64], the concentration for half-maximal inhibition (IC50) lay in the range of 100 to 1000 nM.

In the case of `CCn1nccc1C(=O)N[C@H](c1cn2nc(CC3CC(CC(F)(F)F)CNC3=O)ccc2n1)C1CCC(F)(F)CC1` (single isomer, unassigned) [Compound 65], the IC50 was 100 to 1000 nM.

For the compound `CCn1nccc1C(=O)N[C@H](c1cn2nc(CC3CC(CC(F)(F)F)CNC3=O)ccc2n1)C1CCC(F)(F)CC1` (single isomer, unassigned) [Compound 66], the 50% inhibitory concentration (IC50) fell in the range of 100 to 1000 nM.

Take `CCn1nccc1C(=O)N[C@H](c1cn2nc(CC3(C)C[C@@H](C(F)(F)F)CNC3=O)ccc2n1)[C@H]1CC[C@H](C)CC1` (single isomer, unassigned) [Compound 67]: the half-inhibitory concentration (IC50) lay within 100 to 1000 nM.

For `CCn1nccc1C(=O)N[C@H](c1cn2nc(CC3CC(C(C)(F)F)NC3=O)ccc2n1)C1CCC(F)(F)CC1` (single isomer, unassigned) [Compound 68], the half-maximal inhibitory concentration (IC50) is over 1000 nM.

For `CCn1nccc1C(=O)N[C@H](c1cn2nc(CC3CC(C(C)(F)F)NC3=O)ccc2n1)C1CCC(F)(F)CC1` (single isomer, unassigned) [Compound 69], the half-maximal inhibitory concentration (IC50) is 100 to 1000 nM.

Take `CCn1nccc1C(=O)N[C@H](c1cn2nc(CC3CC(C4CC4)CNC3=O)ccc2n1)C1CCC(F)(F)CC1` (single isomer, unassigned) [Compound 70]: the half-maximal inhibitory concentration (IC50) fell in the range of 100 to 1000 nM.

As for `CCn1nccc1C(=O)N[C@H](c1cn2nc(CC3CC(C4CC4)CNC3=O)ccc2n1)C1CCC(F)(F)CC1` (single isomer, unassigned) [Compound 71], the IC50 lay within 100 to 1000 nM.

On to `CCn1nccc1C(=O)N[C@H](c1cn2nc(CC3CC(F)(F)CNC3=O)c(NC)cc2n1)C1CCC(F)(F)CC1` (single isomer, unassigned) [Compound 73], for which the IC50 lay in the range of 100 to 1000 nM.

Regarding `CCn1nccc1C(=O)N[C@H](c1cn2nc(CC3CC(F)(F)CNC3=O)c(NC)cc2n1)C1CCC(F)(F)CC1` (single isomer, unassigned) [Compound 74], the IC50 is over 1000 nM.

Take `CCn1nccc1C(=O)N[C@H](c1cn2nc(CC3CC(F)(F)CNC3=O)c(C)cc2n1)C1CCC(F)(F)CC1` (single isomer, unassigned) [Compound 76]: the IC50 lay in the range of 100 to 1000 nM.

For the compound `CCn1nccc1C(=O)N[C@H](c1cn2nc(CC3CC(F)(F)CNC3=O)c(C)cc2n1)C1CCC(F)(F)CC1` (single isomer, unassigned) [Compound 77], the half-inhibitory concentration (IC50) was over 1000 nM.

Turning to `CCn1nccc1C(=O)N[C@H](c1cn2nc(CC3C[C@@H](C(F)(F)F)CNC3=O)c(C(F)(F)F)cc2n1)[C@H]1CC[C@H](C)CC1` (single isomer, unassigned) [Compound 78], the IC50 lay within 100 to 1000 nM.

As to `CCn1nccc1C(=O)N[C@H](c1cn2nc(CC3C[C@@H](C(F)(F)F)CNC3=O)c(C(F)(F)F)cc2n1)[C@H]1CC[C@H](C)CC1` (single isomer, unassigned) [Compound 79], the IC50 was over 1000 nM.

Take `CCn1nccc1C(=O)N[C@H](c1cn2nc(CC3C[C@@H](C(F)(F)F)CNC3=O)c(Cl)cc2n1)C1CCC(F)(F)CC1` (single isomer, unassigned) [Compound 80]: the IC50 was in the range of 100 to 1000 nM.

Take `CCn1nccc1C(=O)N[C@H](c1cn2nc(CC3C[C@@H](C(F)(F)F)CNC3=O)c(C)cc2n1)C1CCC(F)(F)CC1` (single isomer, unassigned) [Compound 82]: the 50% inhibitory concentration (IC50) is over 1000 nM.

Regarding `CCn1nccc1C(=O)N[C@H](c1cn2nc(CC3C[C@@H](C(F)(F)F)CNC3=O)c(C)cc2n1)C1CCC(F)(F)CC1` (single isomer, unassigned) [Compound 83], the IC50 fell in the range of 100 to 1000 nM.

For the compound `CCn1nccc1C(=O)N[C@H](c1cn2nc(CC3C[C@@H](C(F)(F)F)CNC3=O)c(N(C)C)cc2n1)C1CCC(F)(F)CC1` (single isomer, unassigned) [Compound 85], the IC50 lay in the range of 100 to 1000 nM.

`CCn1nccc1C(=O)N[C@H](c1cn2nc(CC3CC(F)(F)CNC3=O)c(N(C)C)cc2n1)C1CCC(F)(F)CC1` (single isomer, unassigned) [Compound 87]: the IC50 was under 100 nM.

Regarding `CCN(C)c1cc2nc([C@@H](NC(=O)c3ccnn3CC)C3CCC(F)(F)CC3)cn2nc1CC1C[C@@H](C(F)(F)F)CNC1=O` (single isomer, unassigned) [Compound 88], the IC50 was under 100 nM.

With `CCN(C)c1cc2nc([C@@H](NC(=O)c3ccnn3CC)C3CCC(F)(F)CC3)cn2nc1CC1C[C@@H](C(F)(F)F)CNC1=O` (single isomer, unassigned) [Compound 89], the IC50 is under 100 nM.

With `CCn1nccc1C(=O)N[C@H](c1cn2nc(CC3C[C@@H](C(F)(F)F)CNC3=O)c(N(C)C3CC3)cc2n1)C1CCC(F)(F)CC1` (single isomer, unassigned) [Compound 90], the IC50 lay within 100 to 1000 nM.
